Values joined by “and” are separate entries in the source; they are usually repeats but may differ in a detail not shown here. Identical values can stand only once. Like-named read-outs stand apart in the source and are kept apart here.
Key:
[1] = i.v., q4d × 3
Procedure: Experiments were performed using outbred athymic nu/nu mice (Charles River Laboratories) approximately 6-8 weeks old. Upon arrival, animals received a subcutaneous microchip implant (AVID, Folsom, La.) in the subscapular region for identification of individuals. Animals were allowed to acclimatize for 1 week before any experimental procedures began.
Compound IIa, compound IIc, compound IIa (shown below), and SB-715992 were formulated in a Captisol®-based formulation. Doses were administered intravenously (i.v.) and adjusted to each animal's body weight. Formulations were made once at the beginning of study and stored at room temperature. Clinical grade paclitaxel was purchased pre-mixed in a cremophor-based vehicle (Mayne Pharma, now Hospira, Lake Forest, Ill., catalog #NDC-6170334209) and diluted in sterile saline to provide a dose volume of 16 mL/kg for a 30 mg/kg dose administered intraperitoneally (i.p.)
For the efficacy studies, mice were enrolled with a mean tumor volume of approximately 300 mm^3. Tumor xenografts were measured in two dimensions (L and W) with digital calipers twice weekly from the start of dosing on Day 0. Tumor volume was calculated as (L×W^2)/2. Body weights were measured twice weekly and clinical observations were recorded daily. Tumor volume and body weights were captured and stored by StudyDirector software (StudyLog, South San Francisco, Calif.).

[2] = HCT116 tumor xenograft model, host response (body weight, survival, neutrophils); assay type: in vivo, mouse; details: i.v., q4d × 3; for Neutrophils/ul 72 h post-dose +/− S.D.: 72 h after last dose
Procedure: The cell line HCT-116 has been widely used in the evaluation of mitotic inhibitors such as microtubule disruptors, mitotic kinase inhibitors and KSP inhibitors. A multi-dose efficacy study on a […] (q4d×3) dosing schedule was performed. Experiments were performed using outbred athymic nu/nu mice approximately 6-8 weeks old (Charles River Laboratories, Hollister, Calif.). […] Mice were housed 4-5 animals per cage in clear polycarbonate micro-isolator cages with a 12-hour light, 12-hour dark cycle at temperatures between 70-80 degrees Fahrenheit and 30-70% relative humidity. Food (Purina rodent chow pellets) and water were provided ad libitum. Mice were handled in accordance with Novartis ACUC regulations and guidelines and the ILAR Guide for the Care and Use of Laboratory Animals. Experiments were performed in an AAALAC accredited facility under an ACUC approved protocol.
Compound IIa (free base) and SB-715992 (ispinesib, a KSP inhibitor by Cytokinetics that is in clinical trials; as its free base) were formulated in 20% Captisol® for all the above doses for a dose volume of 8 mL/kg. Doses were adjusted to each animal's body weight.
Female nu/nu mice (Charles River, Hollister, Calif.) were injected subcutaneously in the right flank with 5 million HCT-116 tumor cells suspended in Hank's Balanced Salt Solution (HBSS) in a total volume of 0.1 mL/mouse. For the efficacy studies, mice were randomized 10 days post-implant. […] Tumor volume was calculated as (L×W2)/2. […] Percent treatment/control (T/C) values were calculated using the following formula: % T/C=100×ΔT/ΔC
Since a dose as low as 1.25 mg/kg on a q4d×3 schedule induced regression of HCT116 xenografts, the efficacy study was repeated with a range of doses from 2 to 0.125 mg/kg to observe a dose response and determine how low a dose can be given to induce tumor regression. […] Only the 7.5 mg/kg dose of SB-715992 induced tumors to regress. Additionally, 72 hrs after the last dose, blood was collected to compare the circulating neutrophil levels among groups. Neutrophils were reduced in a dose responsive manner, similar to the tumor efficacy effect.

[3] = tested on: MV4; 11 human AML subcutaneous xenograft tumors; experiment: Subcutaneous MV4; 11 tumor xenograft model, tumor response; assay type: in vivo, mouse
Procedure: Subcutaneous tumor efficacy studies were performed using outbred athymic nu/nu mice approximately 6-8 weeks old (Charles River Laboratories, Hollister, Calif.). The efficacy study in the disseminated disease model was performed using immunodeficient NOD-SCID female mice approximately 7-8 weeks old (Jackson Laboratories, Bar Harbor, Me.). […] Routine animal care and assurance of welfare were as described above.
Human MV4; 11 acute myelogenous leukemia cells were obtained from American Tissue Culture Collection (catalog #CRL-9591, Rockville, Md.) and tested to be free of Mycoplasma sp. and murine viruses in the IMPACT1 PCR assay panel (RADIL, University of Missouri, Columbia, Mo.). For the disseminated disease model, a stable pool of MV4; 11 cells expressing the luciferase gene was received from Fangxian Sun at the Genomics Institute of the Novartis Research Foundation in San Diego, Calif. (MV4; 11-luc). The MV4; 11 cells were grown in Iscove's modified Dulbecco's medium (Mediatech Inc., catalog #15-016-CV) supplemented with 10% fetal bovine serum (JRH Biosciences, catalog #12003-1000M), 4 mM L-glutamine and 5 ng/mL recombinant human […] (GM-CSF) (R&D Systems, catalog #215-GM). MV4; 11-luc were grown in the same media, but with the addition of 2 micrograms/mL of puromycin for selection of luciferase expression. These cells were grown as suspension cultures, maintained at 37° C. in a humidified atmosphere containing 5% carbon dioxide. Cells were cultured for fewer than 10 passages prior to use. Cells were harvested at approximately 2 million cells/mL, and centrifuged at ˜800×g for 5 minutes at 4° C. and then resuspended in a cold HBSS (Mediatech Inc., catalog #21-021-CV) at a concentration of 25 million cells/mL (containing 50% Matrigel™, BD Biosciences, catalog #354234) for implantation subcutaneously (injection volume of 0.2 mL) or at a concentration of 100 million cells/mL for implantation intravenously (i.v.) via the tail vein (injection volume of 0.1 mL). Mice were irradiated with 3 gray for 3 minutes one day prior to the i.v. cell implant.
The compound IIa (free base) and SB-715992 (free base) were formulated in 20% Captisol for a dose volume of 8 mL/kg. Doses were adjusted to each animal's body weight.
For the two efficacy evaluations in the subcutaneous tumor model, 10 million cells combined in a 1:1 mixture of HBSS and Matrigel™ were injected subcutaneously in the right flank in a total volume of 0.2 mL/mouse. […] Tumor volume was calculated as (L×W2)/2.

[4] = Study 2, 1.8 mg/kg, Q4d × 3, i.v
[5] = Study 2, 3.5 mg/kg, Q4d × 3, i.v
[6] = Study 2, 7.5 mg/kg, Q4d × 3, i.v
[7] = Study 2, 0.13 mg/kg, q4d × 3, i.v
[8] = Study 2, 0.25 mg/kg, q4d × 3, i.v
[9] = Study 2, 0.5 mg/kg, q4d × 3, i.v

Cc1ccc(C(=O)N(CCCN)[C@@H](c2nc3cc(Cl)ccc3c(=O)n2Cc2ccccc2)C(C)C)cc1 [SB-715992, Ispinesib, reference compound]
Survival (alive/total) ([1]; 15 mg/kg): 9/9
% Max. Δ body weight, (Day) ([1]; 15 mg/kg, D7): 4 (D7) %
Survival (alive/total) ([1]; Table 14 study, 15 mg/kg): 9/9
% Max. Δ body weight, (Day) ([1]; Table 14 study, 15 mg/kg, D4): −1 (D4) %
Survival (alive/total) ([1]; Table 15 study, 15 mg/kg): 10/10
% Max. Δ body weight, (Day) ([1]; Table 15 study, 15 mg/kg, D11): −3 (D11) %
Survival (alive/total) ([2]; 1.75 mg/kg): 9/9
Neutrophils/ul 72 h post-dose +/− S.D. ([2]; 1.75 mg/kg): 1026 ± 229 µL⁻¹
Max. Δ body weight (Day) ([2]; 1.75 mg/kg, D3): -0.6 ± 0.58 g
Max. Δ body weight (Day) (%) ([2]; 1.75 mg/kg, D3): −2.3 ± 0.51%
Survival (alive/total) ([2]; 3.5 mg/kg): 9/9
Neutrophils/ul 72 h post-dose +/− S.D. ([2]; 3.5 mg/kg): 731 ± 391 µL⁻¹
Max. Δ body weight (Day) ([2]; 3.5 mg/kg, D3): -0.5 ± 0.37 g
Max. Δ body weight (Day) (%) ([2]; 3.5 mg/kg, D3): −2.0 ± 0.44%
Max. Δ body weight (Day) ([2]; 3.5 mg/kg, D4): -0.7 ± 0.05 g
Max. Δ body weight (Day) (%) ([2]; 3.5 mg/kg, D4): −2.7 ± 0.17%
Survival (alive/total) ([2]; 7.5 mg/kg): 9/9
Neutrophils/ul 72 h post-dose +/− S.D. ([2]; 7.5 mg/kg): 476 ± 112 µL⁻¹
Max. Δ body weight (Day) ([2]; 7.5 mg/kg, D4): -0.3 ± 0.05 g
Max. Δ body weight (Day) (%) ([2]; 7.5 mg/kg, D4): −1.3 ± 0.25%
Max. Δ body weight (Day) ([2]; 7.5 mg/kg, D10): -0.7 ± 1.1 g
Max. Δ body weight (Day) (%) ([2]; 7.5 mg/kg, D10): −3.0 ± 2.49%
Survival (alive/total) ([2]; 15 mg/kg): 9/9
Max. Δ body weight (Day) ([2]; 15 mg/kg, D7): -2.5 ± 0.2 g
Max. Δ body weight (Day) (%) ([2]; 15 mg/kg, D7): −10.6 ± 0.75%
CR (complete tumor regressions) ([3]; 15 mg/kg, q4d × 3, i.v.): 6/9 and 6
Δ Tumor volume, Day 24 ([3]; 15 mg/kg, q4d × 3, i.v.): −211 ± 28 mm^3
% Max Regression (Day) ([3]; 15 mg/kg, q4d × 3, i.v., D60): 98%
CR (complete tumor regressions) [3, 4]: 0
Δ Tumor volume, Day 21 [3, 4]: 339 ± 218 mm^3
ΔT/ΔC, Day 21 (%) [3, 4]: 59%
CR (complete tumor regressions) [3, 5]: 0
Δ Tumor volume, Day 21 [3, 5]: 251 ± 132 mm^3
ΔT/ΔC, Day 21 (%) [3, 5]: 44%
% Max. Regression (Day) ([3]; Study 2, 3.5 mg/kg, Q4d × 3, i.v, D10): 41 (D10) %
CR (complete tumor regressions) [3, 6]: 3
Δ Tumor volume, Day 21 [3, 6]: −204 ± 20 mm^3
% Max. Regression (Day) ([3]; Study 2, 7.5 mg/kg, Q4d × 3, i.v, D31): 75 (D31) %

CC(C)(C)[C@H](c1nc(-c2cc(F)ccc2F)cn1Cc1ccccc1)N(CC[C@H](N)CF)C(=O)CO [Compound IIa]
Survival (alive/total) ([1]; 5 mg/kg): 9/9
% Max. Δ body weight, (Day) ([1]; 5 mg/kg, D11): −2 (D11) %
Survival (alive/total) ([2]; 0.125 mg/kg): 9/9
Survival (alive/total) ([2]; 0.25 mg/kg): 9/9
Survival (alive/total) ([2]; 0.5 mg/kg): 9/9
Survival (alive/total) ([2]; 1 mg/kg): 9/9
Survival (alive/total) ([2]; 1.25 mg/kg): 9/9
Survival (alive/total) ([2]; 2 mg/kg, (body weight loss)): 8/9 (body
Survival (alive/total) ([2]; 2.5 mg/kg): 9/9
Survival (alive/total) ([2]; 5 mg/kg, (body weight loss)): 8/9 (body
CR (complete tumor regressions) ([3]; 0.625 mg/kg, q4d × 3, i.v.): 0
Δ Tumor volume, Day 24 ([3]; 0.625 mg/kg, q4d × 3, i.v.): −32 ± 172 mm^3
% Max Regression (Day) ([3]; 0.625 mg/kg, q4d × 3, i.v., D10): 69%
Δ Tumor volume, Day 24 ([3]; 4 mg/kg, q4d × 3, i.v.): −176 ± 31 mm^3
% Max Regression (Day) ([3]; 4 mg/kg, q4d × 3, i.v., D60): 100, %
CR (complete tumor regressions) ([3]; 4 mg/kg, q4d × 3, i.v., listed as COMPOUND IIa): 9
CR (complete tumor regressions) ([3]; 4 mg/kg, q4d × 3, i.v., listed as compound IIa): 9/9
CR (complete tumor regressions) [3, 7]: 0
Δ Tumor volume, Day 21 [3, 7]: 921 ± 341 mm^3
ΔT/ΔC, Day 21 (%) [3, 7]: 161%
CR (complete tumor regressions) [3, 8]: 0
Δ Tumor volume, Day 21 [3, 8]: 765 ± 196 mm^3
ΔT/ΔC, Day 21 (%) [3, 8]: 133%
CR (complete tumor regressions) [3, 9]: 0
Δ Tumor volume, Day 21 [3, 9]: 114 ± 110 mm^3
ΔT/ΔC, Day 21 (%) [3, 9]: 20%
% Max. Regression (Day) ([3]; Study 2, 0.5 mg/kg, q4d × 3, i.v, D10): 55 (D10) %
CR (complete tumor regressions) ([3]; Study 2, 1 mg/kg, q4d × 3, i.v): 6
Δ Tumor volume, Day 21 ([3]; Study 2, 1 mg/kg, q4d × 3, i.v): −194 ± 27 mm^3
% Max. Regression (Day) ([3]; Study 2, 1 mg/kg, q4d × 3, i.v, D63): 89 (D63) %
CR (complete tumor regressions) ([3]; Study 2, 2 mg/kg, q4d × 3, i.v): 5
Δ Tumor volume, Day 21 ([3]; Study 2, 2 mg/kg, q4d × 3, i.v): −201 ± 23 mm^3
% Max. Regression (Day) ([3]; Study 2, 2 mg/kg, q4d × 3, i.v, D63): 87 (D63) %

Reference: patent US8252832B2, “Kinesin inhibitors as cancer therapeutics” (Novartis AG, priority 2007, dated 2012)
